Laboratory results from DBAASP.
In brackets after ≈: the same amount, converted by molar mass. Several values for one entry are separate records, joined by “and”; a condition that tells them apart may be missing. Identical values can stand only once.

Assays:
Experiment in all cases: ≥ marks a high value that may be exact or a test limit, other limits are often not marked, values filed in µg/mL are converted to µM
[1] = tested on: Escherichia coli DH5alpha
[2] = tested on: Klebsiella pneumoniae ATCC 13883
[3] = tested on: Pseudomonas aeruginosa ATCC 27853
[4] = tested on: Salmonella enterica subsp. enterica serovar Typhimurium ATCC 14028
[5] = tested on: Bacillus subtilis
[6] = tested on: Candida albicans ATCC 2002
[7] = tested on: Escherichia coli ATCC 25922
[8] = tested on: Staphylococcus aureus ATCC 2592
[9] = tested on: Staphylococcus aureus NCTC 8325
[10] = tested on: Escherichia coli UB1005
[11] = tested on: Salmonella enterica subsp. enterica serovar Typhimurium C77-31
[12] = tested on: Staphylococcus aureus ATCC 25923
[13] = tested on: Staphylococcus aureus ATCC 29213
[14] = tested on: Staphylococcus epidermidis ATCC 12228
[15] = tested on: Enterococcus faecalis ATCC 29212
[16] = tested on: Candida albicans ATCC 90028

CC[C@H](C)[C@H](NC(=O)[C@H](Cc1cnc[nH]1)NC(=O)[C@H](C)NC(=O)[C@H](CCSC)NC(=O)[C@H](CC(N)=O)NC(=O)[C@H](CCCCN)NC(=O)[C@H](CCCCN)NC(=O)[C@@H](NC(=O)[C@@H](NC(=O)[C@H](CCCCN)NC(=O)[C@H](C)NC(=O)[C@H](Cc1ccccc1)NC(=O)[C@H](CC(C)C)NC(=O)[C@H](CCCCN)NC(=O)[C@@H]1CCCN1C(=O)[C@H](CC(C)C)NC(=O)[C@H](Cc1ccccc1)NC(=O)[C@@H](N)CS)[C@@H](C)CC)[C@@H](C)O)C(=O)N[C@@H](CCCN=C(N)N)C(=O)O [CFLPKLFAKITKKNMAHIR]
MIC [1]: 10 µM (≈ 22.6 µg/mL)
MIC [2]: 7 µM and 5 µM
MIC [3]: 10 µM (≈ 22.6 µg/mL)
MIC [4]: 15 µM (≈ 33.9 µg/mL)

CC[C@H](C)[C@H](NC(=O)[C@H](C)NC(=O)[C@H](CS)NC(=O)[C@@H](NC(=O)[C@@H](NC(=O)[C@@H](NC(=O)[C@@H]1CCCN1C(=O)[C@@H](NC(=O)[C@@H](NC(=O)[C@@H](NC(=O)[C@H](C)NC(=O)[C@H](Cc1ccccc1)NC(=O)[C@H](CC(C)C)NC(=O)[C@H](CCCN=C(N)N)NC(=O)[C@H](CCCN=C(N)N)NC(=O)[C@H](CC(C)C)NC(=O)CNC(=O)[C@@H]1CCCN1C(=O)[C@@H](NC(=O)[C@@H](N)Cc1ccccc1)[C@@H](C)CC)[C@@H](C)O)C(C)C)C(C)C)[C@@H](C)O)C(C)C)C(C)C)C(=O)N[C@@H](CC(N)=O)C(=O)N[C@@H](CCCCN)C(=O)N[C@@H](CC(C)C)C(=O)N1CCC[C@H]1C(=O)N1CCC[C@H]1C(=O)NCC(=O)O [FIPGLRRLFATVVPTVVCAINKLPPG]
MIC [5]: 18 µM (≈ 50 µg/mL)
MIC [6]: 2.27 µM (≈ 6.3 µg/mL)
MIC [7]: 4.5 µM (≈ 12.5 µg/mL)
MIC [8]: 4.5 µM (≈ 12.5 µg/mL)

CC[C@H](C)[C@H](NC(=O)[C@@H](NC(=O)[C@H](CO)NC(=O)[C@@H]1CCCN1C(=O)[C@@H](NC(=O)[C@H](CC(C)C)NC(=O)[C@H](CCCCN)NC(=O)[C@H](Cc1ccccc1)NC(=O)[C@H](CC(C)C)NC(=O)CNC(=O)CNC(=O)[C@H](CC(C)C)NC(=O)[C@@H](N)Cc1ccccc1)C(C)C)C(C)C)C(=O)N[C@H]1CSSC[C@@H](C(=O)O)NC(=O)[C@H](CCCCN)NC(=O)[C@H](CCCCN)NC(=O)[C@H]([C@@H](C)O)NC(=O)[C@H](C(C)C)NC(=O)[C@H](C)NC1=O [FLGGLFKLVPSVICAVTKKC]
MIC [7]: 12.5 µM (≈ 26.5 µg/mL)
MIC [9]: 12.5 µM (≈ 26.5 µg/mL)

CC[C@H](C)[C@H](NC(=O)CNC(=O)[C@H](CO)NC(=O)[C@H](CCCN=C(N)N)NC(=O)[C@@H](N)Cc1ccccc1)C(=O)N[C@@H](CC(C)C)C(=O)N[C@@H](CCCCN)C(=O)N[C@@H](CC(C)C)C(=O)N[C@@H](C)C(=O)N[C@@H](CO)C(=O)N[C@@H](CCCCN)C(=O)N[C@H](C(=O)NCC(=O)N[C@@H](CO)C(=O)N[C@H](C(=O)N[C@@H](CC(C)C)C(=O)N[C@H]1CSSC[C@@H](C(=O)O)NC(=O)[C@H](CC(N)=O)NC(=O)[C@H](CCCCN)NC(=O)[C@H](CC(C)C)NC(=O)[C@H](C(C)C)NC(=O)[C@H](C)NC1=O)C(C)C)[C@@H](C)CC [FRSGILKLASKIGSVLCAVLKNC]
MIC [5]: 20.7 µM (≈ 50 µg/mL)
MIC [6]: 10.3 µM (≈ 25 µg/mL)
MIC [7]: 20.7 µM (≈ 50 µg/mL)
MIC [8]: 10.3 µM (≈ 25 µg/mL)

CC[C@H](C)[C@H](NC(=O)CNC(=O)[C@H](CCC(N)=O)NC(=O)[C@H](Cc1ccccc1)NC(=O)[C@H](Cc1ccccc1)NC(=O)[C@H](CCCCN)NC(=O)[C@H](CCCCN)NC(=O)[C@H](CC(C)C)NC(=O)[C@H](C)NC(=O)[C@H](CC(N)=O)NC(=O)[C@H](CC(C)C)NC(=O)CN)C(=O)N[C@@H](Cc1cnc[nH]1)C(=O)N[C@@H](CCC(=O)O)C(=O)N[C@@H](C)C(=O)N[C@H](C(=O)N[C@@H](CCCCN)C(=O)N[C@@H](CC(C)C)C(=O)N[C@H](C(=O)N[C@@H](CC(N)=O)C(=O)N[C@@H](CC(N)=O)C(=O)N[C@@H](Cc1cnc[nH]1)C(=O)N[C@H](C(=O)N[C@@H](CCC(N)=O)C(=O)O)C(C)C)[C@@H](C)CC)[C@@H](C)CC [GLNALKKFFQGIHEAIKLINNHVQ]
MIC [7]: 20 µM (≈ 54.7 µg/mL)
MIC [9]: ≥ 160 µM

CC[C@H](C)[C@H](NC(=O)CNC(=O)[C@H](CCC(N)=O)NC(=O)[C@H](Cc1ccccc1)NC(=O)[C@@H](NC(=O)[C@H](CCCCN)NC(=O)[C@H](CCCCN)NC(=O)[C@H](CC(C)C)NC(=O)[C@H](C)NC(=O)[C@H](CC(N)=O)NC(=O)[C@H](CC(C)C)NC(=O)CN)C(C)C)C(=O)N[C@@H](Cc1cnc[nH]1)C(=O)N[C@@H](CCC(=O)O)C(=O)N[C@@H](C)C(=O)N[C@H](C(=O)N[C@@H](CCCCN)C(=O)N[C@@H](CC(C)C)C(=O)N[C@H](C(=O)N[C@@H](CC(N)=O)C(=O)N[C@@H](CC(N)=O)C(=O)N[C@@H](Cc1cnc[nH]1)C(=O)N[C@H](C(=O)N[C@@H](CCCCN)C(=O)O)C(C)C)[C@@H](C)CC)[C@@H](C)CC [GLNALKKVFQGIHEAIKLINNHVK]
MIC [7]: 20 µM (≈ 53.7 µg/mL)
MIC [9]: ≥ 80 µM

CC(C)C[C@H](NC(=O)[C@H](CCCN=C(N)N)NC(=O)[C@H](CCCN=C(N)N)NC(=O)[C@H](Cc1ccccc1)NC(=O)[C@H](CCCN=C(N)N)NC(=O)CN)C(=O)N[C@@H](CCCN=C(N)N)C(=O)N[C@@H](CCCCN)C(=O)N[C@@H](CCCCN)C(=O)N[C@H](C(=O)N[C@@H](CCCN=C(N)N)C(=O)N[C@@H](CCCCN)C(N)=O)[C@@H](C)O [GRFRRLRKKTRK]
MIC [7]: 128 µM (≈ 205 µg/mL)
MIC [10]: ≥ 128 µM
MIC [11]: ≥ 128 µM
MIC [12]: > 128 µM
MIC [13]: > 128 µM
MIC [14]: > 128 µM

CC[C@H](C)[C@H](NC(=O)[C@H](CCCCN)NC(=O)[C@H](CCCCN)NC(=O)[C@H](CC(C)C)NC(=O)[C@H](CCCN=C(N)N)NC(=O)[C@H](CCCCN)NC(=O)[C@H](CCCN=C(N)N)NC(=O)[C@@H](NC(=O)[C@H](Cc1c[nH]c2ccccc12)NC(=O)[C@H](Cc1c[nH]c2ccccc12)NC(=O)[C@H](CCCN=C(N)N)NC(=O)[C@H](CC(C)C)NC(=O)[C@H](CCCN=C(N)N)NC(=O)[C@H](CCCN=C(N)N)NC(=O)[C@H](Cc1ccccc1)NC(=O)[C@@H](N)CCCN=C(N)N)[C@@H](C)O)C(N)=O [RFRRLRWWTRKRLKKI]
MIC [15]: 8 µM (≈ 18.4 µg/mL)
MIC [10]: 8 µM (≈ 18.4 µg/mL)
MIC [11]: 8 µM (≈ 18.4 µg/mL)
MIC [14]: 4 µM (≈ 9.2 µg/mL)

CC(C)C[C@H](NC(=O)[C@H](CCCN=C(N)N)NC(=O)[C@H](Cc1c[nH]c2ccccc12)NC(=O)[C@H](CCCN=C(N)N)NC(=O)[C@@H](NC(=O)[C@H](Cc1c[nH]c2ccccc12)NC(=O)[C@H](Cc1c[nH]c2ccccc12)NC(=O)[C@H](CCCN=C(N)N)NC(=O)[C@H](CC(C)C)NC(=O)[C@H](CCCN=C(N)N)NC(=O)[C@@H](N)CCCN=C(N)N)[C@@H](C)O)C(=O)N[C@@H](CCCCN)C(N)=O [RRLRWWTRWRLK]
MIC [7]: 4 µM (≈ 7.25 µg/mL)
MIC [10]: 4 µM (≈ 7.25 µg/mL)
MIC [11]: 8 µM (≈ 14.5 µg/mL)
MIC [12]: 8 µM (≈ 14.5 µg/mL)
MIC [13]: 4 µM (≈ 7.25 µg/mL)
MIC [14]: 8 µM (≈ 14.5 µg/mL)

CC[C@H](C)[C@H](NC(=O)[C@@H](NC(=O)[C@@H]1CCCN1C(=O)[C@H](CC(C)C)NC(=O)[C@@H](NC(=O)[C@@H](N)CO)[C@@H](C)CC)[C@@H](C)O)C(=O)N[C@H](C(=O)N[C@@H](CO)C(=O)N[C@@H](Cc1ccccc1)C(=O)N[C@@H](CC(C)C)C(=O)N[C@@H](CO)C(=O)N[C@@H](CCCCN)C(=O)N[C@@H](Cc1ccccc1)C(=O)N[C@@H](CC(C)C)C(N)=O)C(C)C [SILPTIVSFLSKFL]
MIC [9]: 24 µM (≈ 37.5 µg/mL)

CC[C@H](C)[C@H](NC(=O)[C@H](CCSC)NC(=O)[C@@H](N)CO)C(=O)N[C@@H](CO)C(=O)N[C@H](C(=O)N[C@@H](CC(C)C)C(=O)N[C@@H](CCCCN)C(=O)N[C@@H](CC(N)=O)C(=O)N[C@@H](CC(C)C)C(=O)NCC(=O)N[C@@H](CCCCN)C(=O)N[C@H](C(=O)NCC(=O)N[C@@H](CC(C)C)C(=O)NCC(=O)N[C@@H](Cc1ccccc1)C(=O)N[C@H](C(=O)N[C@@H](C)C(=O)N[C@H]1CSSC[C@@H](C(=O)O)NC(=O)[C@H](CCC(N)=O)NC(=O)[C@H](CCCCN)NC(=O)[C@H](CC(N)=O)NC(=O)[C@H](C(C)C)NC(=O)[C@H](CCCCN)NC1=O)C(C)C)C(C)C)C(C)C [SMISVLKNLGKVGLGFVACKVNKQC]
MIC [16]: ≥ 110 µM
MIC [7]: 3.5 µM (≈ 9.22 µg/mL)
MIC [9]: ≥ 60 µM

CC(C)[C@H](N)C(=O)N[C@@H](CCCCN)C(=O)N[C@@H](CCCN=C(N)N)C(=O)N[C@@H](Cc1c[nH]c2ccccc12)C(=O)N[C@@H](CCCCN)C(=O)N[C@@H](CCCCN)C(=O)N[C@@H](Cc1ccccc1)C(=O)N[C@@H](Cc1c[nH]c2ccccc12)C(=O)N[C@@H](CCCN=C(N)N)C(=O)N[C@@H](CCCCN)C(=O)N[C@@H](Cc1c[nH]c2ccccc12)C(=O)N[C@@H](CCCCN)C(=O)N[C@@H](CCCCN)C(=O)N[C@@H](Cc1c[nH]c2ccccc12)C(=O)N[C@@H](Cc1c[nH]c2ccccc12)C(N)=O [VKRWKKFWRKWKKWW]
MIC [5]: 2.06 µM (≈ 4.69 µg/mL)
MIC [6]: 1.03 µM (≈ 2.34 µg/mL)
MIC [7]: 8.24 µM (≈ 18.7 µg/mL)
MIC [8]: 2.06 µM (≈ 4.69 µg/mL)
